The record followed here is US20240269139A1, “COMPOUNDS FOR TARGETED PROTEIN DEGRADATION OF KINASES” (DANA-FARBER CANCER INSTITUTE, INC., priority 2020, published 2024).

Like-named read-outs stand apart in the source and are kept apart here.

Holding throughout (assay type): cell-based
The target of test [1] is T1, protein kinases (human kinome) (Homo sapiens, UniProt P11387).
T1 sequence (P11387 1-765): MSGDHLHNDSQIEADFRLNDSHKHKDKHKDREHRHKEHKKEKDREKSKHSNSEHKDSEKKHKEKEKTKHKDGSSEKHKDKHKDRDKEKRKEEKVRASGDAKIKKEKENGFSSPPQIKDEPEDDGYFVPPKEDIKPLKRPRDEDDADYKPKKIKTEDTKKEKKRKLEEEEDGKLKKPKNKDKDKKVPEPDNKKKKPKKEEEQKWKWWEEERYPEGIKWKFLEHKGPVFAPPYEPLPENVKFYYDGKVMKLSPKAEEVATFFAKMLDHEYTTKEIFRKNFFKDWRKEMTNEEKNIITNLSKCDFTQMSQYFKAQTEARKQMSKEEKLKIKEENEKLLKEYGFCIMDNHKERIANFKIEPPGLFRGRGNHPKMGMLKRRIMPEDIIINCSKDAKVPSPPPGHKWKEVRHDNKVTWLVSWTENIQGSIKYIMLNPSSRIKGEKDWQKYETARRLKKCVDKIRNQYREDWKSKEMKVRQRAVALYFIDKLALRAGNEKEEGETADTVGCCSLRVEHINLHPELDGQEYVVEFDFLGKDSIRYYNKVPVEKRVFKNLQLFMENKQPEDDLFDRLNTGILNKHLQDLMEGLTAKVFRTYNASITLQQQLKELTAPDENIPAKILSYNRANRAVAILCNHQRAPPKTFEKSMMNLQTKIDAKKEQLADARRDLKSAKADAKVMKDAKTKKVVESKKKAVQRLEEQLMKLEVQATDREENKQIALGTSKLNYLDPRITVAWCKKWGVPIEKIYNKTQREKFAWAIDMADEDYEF
Particulars: TOP1 P11387.

Test [2] deals with protein kinases (human kinome) (Homo sapiens, UniProt Q15131). Particulars: for logFC: CDK10 (Q15131-1).
The target in test [3] is protein kinases (human kinome) (Homo sapiens, UniProt Q7KZI7).
Test [4] has as its target protein kinases (human kinome) (Homo sapiens, UniProt P49137).
Test [5] concerns the target protein kinases (human kinome) (Homo sapiens, UniProt Q05397).
Test [6] concerns the target protein kinases (human kinome) (Homo sapiens, UniProt Q15418). Particulars: experiment wp160, 8 hr.
Test [7] deals with protein kinases (human kinome) (Homo sapiens, UniProt Q9BVS4). To be noted: RIOK2 Q9BVS4; experiment wp076.
The target of test [8] is protein kinases (human kinome) (Homo sapiens, UniProt O94804). To be noted: STK10 (O94804).
Test [9] concerns the target protein kinases (human kinome) (Homo sapiens, UniProt P54646). To be noted: experiment wp146; for logFC: PRKAA2 (P54646).
Setting [10] is: experiment wp103, direction down.

Chain of protein kinases (human kinome) (Homo sapiens, UniProt P49137) (P49137 whole entry): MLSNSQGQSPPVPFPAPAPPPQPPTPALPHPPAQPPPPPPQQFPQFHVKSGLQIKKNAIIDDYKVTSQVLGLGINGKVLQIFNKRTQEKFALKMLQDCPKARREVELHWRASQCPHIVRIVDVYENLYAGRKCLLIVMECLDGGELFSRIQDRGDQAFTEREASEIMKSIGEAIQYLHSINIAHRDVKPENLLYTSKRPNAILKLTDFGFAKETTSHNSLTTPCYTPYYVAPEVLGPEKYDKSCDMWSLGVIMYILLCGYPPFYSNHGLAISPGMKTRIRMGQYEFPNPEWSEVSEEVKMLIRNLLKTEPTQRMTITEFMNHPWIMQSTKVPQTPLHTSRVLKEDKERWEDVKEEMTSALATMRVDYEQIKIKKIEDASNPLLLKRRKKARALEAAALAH
Chain of protein kinases (human kinome) (Homo sapiens, UniProt Q05397) (Q05397 whole entry): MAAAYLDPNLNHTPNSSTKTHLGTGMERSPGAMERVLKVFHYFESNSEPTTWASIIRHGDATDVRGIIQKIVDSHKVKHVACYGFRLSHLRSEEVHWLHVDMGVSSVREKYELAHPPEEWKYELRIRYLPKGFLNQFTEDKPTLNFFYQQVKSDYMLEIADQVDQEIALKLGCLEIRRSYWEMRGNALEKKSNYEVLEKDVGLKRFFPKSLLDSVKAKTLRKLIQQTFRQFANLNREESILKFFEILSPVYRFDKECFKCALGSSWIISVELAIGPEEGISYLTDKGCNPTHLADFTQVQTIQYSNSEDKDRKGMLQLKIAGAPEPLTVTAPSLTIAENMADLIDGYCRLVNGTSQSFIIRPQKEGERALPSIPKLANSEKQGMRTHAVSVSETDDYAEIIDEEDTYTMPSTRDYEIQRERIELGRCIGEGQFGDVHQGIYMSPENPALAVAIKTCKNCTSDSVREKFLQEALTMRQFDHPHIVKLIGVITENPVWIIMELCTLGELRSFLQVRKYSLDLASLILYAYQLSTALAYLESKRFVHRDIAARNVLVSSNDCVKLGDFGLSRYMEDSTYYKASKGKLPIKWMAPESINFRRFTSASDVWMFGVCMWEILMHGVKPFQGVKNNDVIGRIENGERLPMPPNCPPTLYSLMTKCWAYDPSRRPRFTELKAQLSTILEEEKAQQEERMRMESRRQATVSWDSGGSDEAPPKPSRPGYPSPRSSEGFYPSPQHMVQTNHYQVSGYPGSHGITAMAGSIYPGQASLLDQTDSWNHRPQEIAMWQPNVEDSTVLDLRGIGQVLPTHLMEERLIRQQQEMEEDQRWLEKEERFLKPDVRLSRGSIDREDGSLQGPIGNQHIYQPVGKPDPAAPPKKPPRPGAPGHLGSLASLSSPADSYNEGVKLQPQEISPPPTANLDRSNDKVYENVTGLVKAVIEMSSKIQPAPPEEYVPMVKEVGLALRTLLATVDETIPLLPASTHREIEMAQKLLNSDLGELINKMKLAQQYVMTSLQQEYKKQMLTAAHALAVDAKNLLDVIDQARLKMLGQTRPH
Chain of protein kinases (human kinome) (Homo sapiens, UniProt O94804) (O94804 whole entry): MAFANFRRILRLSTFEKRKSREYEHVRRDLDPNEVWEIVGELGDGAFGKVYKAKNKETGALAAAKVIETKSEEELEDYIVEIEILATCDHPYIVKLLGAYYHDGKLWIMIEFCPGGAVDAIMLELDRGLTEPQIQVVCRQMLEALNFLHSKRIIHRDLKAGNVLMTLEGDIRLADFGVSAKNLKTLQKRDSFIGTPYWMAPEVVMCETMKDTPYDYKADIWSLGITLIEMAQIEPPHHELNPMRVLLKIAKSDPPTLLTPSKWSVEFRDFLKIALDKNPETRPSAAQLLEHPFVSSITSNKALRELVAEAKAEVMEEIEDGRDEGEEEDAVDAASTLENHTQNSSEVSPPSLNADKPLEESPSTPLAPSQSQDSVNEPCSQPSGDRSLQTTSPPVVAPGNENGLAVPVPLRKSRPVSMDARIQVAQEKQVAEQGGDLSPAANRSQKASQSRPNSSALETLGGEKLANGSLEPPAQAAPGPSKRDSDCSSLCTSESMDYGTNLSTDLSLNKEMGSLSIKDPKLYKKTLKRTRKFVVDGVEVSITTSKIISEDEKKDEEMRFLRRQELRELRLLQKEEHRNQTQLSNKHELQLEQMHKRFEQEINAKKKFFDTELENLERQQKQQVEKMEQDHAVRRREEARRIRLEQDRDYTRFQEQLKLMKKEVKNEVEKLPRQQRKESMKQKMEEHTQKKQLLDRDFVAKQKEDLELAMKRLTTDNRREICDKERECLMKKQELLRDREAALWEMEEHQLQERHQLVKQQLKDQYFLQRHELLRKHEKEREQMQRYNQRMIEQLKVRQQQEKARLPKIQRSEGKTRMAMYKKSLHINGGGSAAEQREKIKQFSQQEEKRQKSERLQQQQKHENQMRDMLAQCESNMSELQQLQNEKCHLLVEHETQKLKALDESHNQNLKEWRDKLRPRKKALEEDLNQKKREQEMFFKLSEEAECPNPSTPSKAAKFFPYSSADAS
Chain of protein kinases (human kinome) (Homo sapiens, UniProt Q7KZI7) (Q7KZI7 whole entry): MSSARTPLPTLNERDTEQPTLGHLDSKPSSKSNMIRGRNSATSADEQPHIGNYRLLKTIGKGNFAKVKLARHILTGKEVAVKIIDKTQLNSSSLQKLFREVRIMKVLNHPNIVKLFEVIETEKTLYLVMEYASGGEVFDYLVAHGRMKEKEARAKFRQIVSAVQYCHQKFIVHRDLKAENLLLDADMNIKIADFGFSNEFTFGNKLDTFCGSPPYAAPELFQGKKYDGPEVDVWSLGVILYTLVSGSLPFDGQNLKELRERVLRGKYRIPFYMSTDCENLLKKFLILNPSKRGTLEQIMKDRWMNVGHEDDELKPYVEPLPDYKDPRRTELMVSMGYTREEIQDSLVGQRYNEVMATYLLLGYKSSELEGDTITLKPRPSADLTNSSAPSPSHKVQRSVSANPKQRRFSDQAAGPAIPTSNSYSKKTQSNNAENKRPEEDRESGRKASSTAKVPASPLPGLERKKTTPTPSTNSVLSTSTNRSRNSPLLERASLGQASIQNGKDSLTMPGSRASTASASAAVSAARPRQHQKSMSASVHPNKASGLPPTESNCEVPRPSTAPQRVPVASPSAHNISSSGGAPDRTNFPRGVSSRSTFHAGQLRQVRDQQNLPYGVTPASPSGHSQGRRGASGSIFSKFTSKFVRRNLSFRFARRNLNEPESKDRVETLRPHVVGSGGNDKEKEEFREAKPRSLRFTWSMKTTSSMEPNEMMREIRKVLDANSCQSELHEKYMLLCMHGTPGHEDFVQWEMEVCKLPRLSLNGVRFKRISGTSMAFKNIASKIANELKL
Chain of protein kinases (human kinome) (Homo sapiens, UniProt Q15131) (Q15131 whole entry): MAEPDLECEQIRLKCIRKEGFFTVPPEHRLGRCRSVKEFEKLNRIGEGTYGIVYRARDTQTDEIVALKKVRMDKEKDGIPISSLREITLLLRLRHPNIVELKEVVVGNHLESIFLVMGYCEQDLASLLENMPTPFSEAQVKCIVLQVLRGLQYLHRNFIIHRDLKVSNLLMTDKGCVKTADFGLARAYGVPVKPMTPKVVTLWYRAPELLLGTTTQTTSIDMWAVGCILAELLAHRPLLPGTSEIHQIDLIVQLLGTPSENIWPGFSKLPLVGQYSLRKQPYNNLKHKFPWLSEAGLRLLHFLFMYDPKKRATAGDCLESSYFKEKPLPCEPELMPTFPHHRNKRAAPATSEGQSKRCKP
Chain of protein kinases (human kinome) (Homo sapiens, UniProt Q9BVS4) (Q9BVS4 whole entry): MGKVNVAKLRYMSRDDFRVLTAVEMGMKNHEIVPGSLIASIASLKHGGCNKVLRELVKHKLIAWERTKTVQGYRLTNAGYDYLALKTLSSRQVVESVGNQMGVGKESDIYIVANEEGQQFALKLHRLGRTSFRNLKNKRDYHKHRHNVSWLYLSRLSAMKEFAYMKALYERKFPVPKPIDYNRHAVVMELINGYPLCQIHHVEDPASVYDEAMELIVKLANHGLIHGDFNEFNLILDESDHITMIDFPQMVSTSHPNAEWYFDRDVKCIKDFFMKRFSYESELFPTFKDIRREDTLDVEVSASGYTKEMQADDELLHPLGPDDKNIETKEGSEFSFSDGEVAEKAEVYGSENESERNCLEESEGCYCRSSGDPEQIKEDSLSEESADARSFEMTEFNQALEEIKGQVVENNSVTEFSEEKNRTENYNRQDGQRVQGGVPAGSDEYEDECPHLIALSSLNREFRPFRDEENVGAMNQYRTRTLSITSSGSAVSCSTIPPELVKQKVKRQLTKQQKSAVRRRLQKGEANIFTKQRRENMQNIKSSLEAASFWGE
Chain of protein kinases (human kinome) (Homo sapiens, UniProt P54646) (P54646 whole entry): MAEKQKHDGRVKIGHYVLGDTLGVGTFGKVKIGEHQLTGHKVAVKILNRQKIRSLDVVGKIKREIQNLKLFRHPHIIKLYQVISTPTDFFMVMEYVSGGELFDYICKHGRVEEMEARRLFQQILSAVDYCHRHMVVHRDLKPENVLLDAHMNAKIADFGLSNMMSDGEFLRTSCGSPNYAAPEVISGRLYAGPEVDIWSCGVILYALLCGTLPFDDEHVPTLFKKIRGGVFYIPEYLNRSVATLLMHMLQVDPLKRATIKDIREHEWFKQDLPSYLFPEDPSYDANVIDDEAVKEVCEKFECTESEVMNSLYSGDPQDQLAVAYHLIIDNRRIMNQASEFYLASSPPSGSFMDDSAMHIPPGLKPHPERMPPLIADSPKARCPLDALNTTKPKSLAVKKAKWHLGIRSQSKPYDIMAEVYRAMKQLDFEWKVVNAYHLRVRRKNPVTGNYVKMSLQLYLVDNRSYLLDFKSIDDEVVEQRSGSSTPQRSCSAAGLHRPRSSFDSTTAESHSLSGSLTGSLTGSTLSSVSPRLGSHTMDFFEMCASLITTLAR

`CC(=O)c1c(C)c2cnc(Nc3ccc(N4CCN(CCOCCOCCOCCNC(=O)COc5cccc6c5C(=O)N(C5CCC(=O)NC5=O)C6=O)CC4)cn3)nc2n(C2CCCC2)c1=O` (stereo not drawn) [BSJ.03.123] registered a logFC in [1] (experiment wp084) of −0.3381.
As to `O=C(COc1cccc2c1C(=O)N(C1CCC(=O)NC1=O)C2=O)NCCCCCCCN1CCc2cc(Nc3ncc(C4CC4)c(NCCCNC(=O)C4CCC4)n3)ccc2C1` (stereo not drawn) [BSJ.04.178], the logFC is recorded as −0.6546 in test [2] (experiment wp134); −0.9686 in test [3] (MARK2 (Q7KZI7-1), experiment wp134, direction down); −0.9686 in test [3] (MARK2 Q7KZI7-1, experiment wp134). Also, the “logFC of CDK10 (Q15131-1)” value in test [2] (experiment wp134) is −0.6546.
In the case of `Cc1ncsc1-c1ccc([C@H](C)NC(=O)[C@@H]2C[C@@H](O)CN2C(=O)[C@@H](NC(=O)CCCCCN2CCc3cc(Nc4ncc(C5CC5)c(NCCCNC(=O)C5CCC5)n4)ccc3C2)C(C)(C)C)cc1` [BSJ.05.026], the logFC in test [3] (MARK2 (Q7KZI7-1), experiment wp195, direction down) was −1.239; in [3] (MARK2 Q7KZI7-1, experiment wp195), −1.239.
On to `Cc1ccc(NC(=O)c2cccc(C(F)(F)F)c2)cc1N1Cc2cnc(Nc3ccc(N4CCN(Cc5cn(CCCCCOc6cccc7c6C(=O)N(C6CCC(=O)NC6=O)C7=O)nn5)CC4)nc3)nc2N(C)C1=O` (stereo not drawn) [DB0646, N-(3-(7-((6-(4-((1-(5-((2-(2,6-Dioxopiperidin-3-yl)-1,3-dioxoisoindolin-4-yl)oxy)pentyl)-1H-1,2,3-triazol-4-yl)methyl)piperazin-1-v)pyridin-3-yl)amino)-1-methyl-2-oxo-1,4-dihydropyrimido[4,5-d]pyrimidin-3(2H)-yl)-4-methylphenyl)-3-(trifluoromethyl)benzamide], for which the “logFC MAPKAPK2” value in test [4] (Accession P49137, experiment wp045, direction down) is reported as −0.4334; in test [4] (Accession P49137, experiment wp105, direction down) it was −0.4562; in [4] (Accession P49137, experiment wp107, direction down), −0.3734; in [4] (Accession P49137, experiment wp114, direction down), −0.4911; in [4] (Accession P49137, experiment wp117, direction down), −0.4333; in test [4] (Accession P49137, experiment wp152, direction down) it was −0.4223. For the same compound, the “logFC MAPKAPK2” value in test [4] (Accession P49137, experiment wp160, 4 hr, direction down) is listed as −0.3444; in test [4] (Accession P49137, experiment wp160, 8 hr, direction down), −0.6227; in test [4] (Accession P49137, experiment wp172, direction down) it was −0.3294; in [4] (MAPKAPK2 (P49137), experiment wp045) it was −0.4334; in [4] (MAPKAPK2 (P49137), experiment wp105) it was −0.4562; in [4] (MAPKAPK2 (P49137), experiment wp107), −0.3734. Besides, the “logFC MAPKAPK2” value is reported as −0.4911 in [4] (MAPKAPK2 (P49137), experiment wp114); −0.4333 in [4] (MAPKAPK2 (P49137), experiment wp117); −0.4223 in test [4] (MAPKAPK2 (P49137), experiment wp152); −0.3444 in test [4] (MAPKAPK2 (P49137), experiment wp160, 4 hr); −0.6227 in [4] (MAPKAPK2 (P49137), experiment wp160, 8 hr); −0.3294 in test [4] (MAPKAPK2 (P49137), experiment wp172). The “logFC PTK2” value is −0.5575 in [5] (Accession Q05397, experiment wp105, direction down); −0.5575 in [5] (PTK2 Q05397, experiment wp105); −0.5538 in [5] (PTK2 Q05397, experiment wp114); −0.8047 in [5] (PTK2 Q05397, experiment wp172). Also, the logFC in [5] (PTK2 Q05397, experiment wp114) was −0.5538; in [5] (PTK2 Q05397, experiment wp172), −0.8047; in test [6] (RPS6KA1 (Q15418-1), direction down) it was −0.413. The “logFC RPS6KA1 (Q15418-1)” value in test [6] is −0.413.
In turn, `CC(C)(C)c1nc(-c2cccc(NS(=O)(=O)c3c(F)cccc3F)c2F)c(-c2ccnc(NCCOCCNC(=O)CCOCCOCCNc3cccc4c3C(=O)N(C3CCC(=O)NC3=O)C4=O)n2)s1` (stereo not drawn) [DD.03.106] had a logFC in test [1] (experiment wp147, 4 uM) of −0.4525.
In the case of `CC(C)(C)c1nc(-c2cccc(NS(=O)(=O)c3c(F)cccc3F)c2F)c(-c2ccnc(NCCOCCNC(=O)CCOCCOCCNc3cccc4c3CN(C3CCC(=O)NC3=O)C4=O)n2)s1` (stereo not drawn) [DD.03.107], the logFC was −0.3823 in test [1] (experiment wp147, 1 uM); −0.4234 in test [1] (experiment wp147, 2 uM); −0.4699 in test [1] (experiment wp147, 4 uM).
Turning to `CNC(=O)c1ccccc1Nc1cc(Nc2ccc(N3CCN(CCOCCOCCNC(=O)CNc4cccc5c4C(=O)N(C4CCC(=O)NC4=O)C5=O)CC3)cc2OC)ncc1C(F)(F)F` (stereo not drawn) [MFH.5.103.1], in test [2] (experiment wp076), the logFC is on record as −0.6988 and the “logFC of CDK10 (Q15131-1)” value is on record as −0.6988.
As for `CCc1cnn2c(N(Cc3ccc(N)nc3)C(=O)CCOCCOCCOCCNC(=O)CNc3cccc4c3C(=O)N(C3CCC(=O)NC3=O)C4=O)cc(N3CCCC[C@H]3CCO)nc12` (stereo partly drawn) [MFH.5.115.2], in test [7], the logFC is on record as −0.8067 and the “logFC RIOK2” value is recorded as −0.8067.
Consider `O=C1CCC(N2C(=O)c3cccc(NCCCCCCCCN4CCC(NC(=O)c5[nH]ncc5NC(=O)c5c(Cl)cccc5Cl)CC4)c3C2=O)C(=O)N1` (stereo not drawn) [MFH.5.126.1], for which, in test [7], the logFC is −0.7874 and the “logFC RIOK2” value is −0.7874.
Take `Cc1ccc(C(=O)Nc2ccc(CN3CCN(CCCOCCOCCOCCNC(=O)COc4cccc5c4C(=O)N(C4CCC(=O)NC4=O)C5=O)CC3)c(C(F)(F)F)c2)cc1C#Cc1cnc2cccnn12` (stereo not drawn) [SB1.G.187]: the logFC in test [8] (experiment wp103) and in test [8] (setting [10]) was −0.3374 in each case.
Regarding `CC(C)S(=O)(=O)c1ccccc1Nc1nc(Nc2ccc(N3CCN(CCOCCOCCC(=O)NCCNc4cccc5c4CN(C4CCC(=O)NC4=O)C5=O)CC3)cc2)ncc1Cl` (stereo not drawn) [TL13.97], the logFC in [8] (experiment wp137) is on record as −0.3477; in test [8] (experiment wp137, direction down) it was −0.3477.
On to `NC(=O)c1c(F)cccc1Nc1nc(Nc2ccc(S(=O)(=O)NCCOCCOCCOCCOCCNc3cccc4c3C(=O)N(C3CCC(=O)NC3=O)C4=O)cc2)ncc1Br` (stereo not drawn) [TMX.02.138], for which, in test [9], the logFC is given as −1.476 and the “logFC of PRKAA2 (P54646)” value was −1.476.
With `Cc1cc(Nc2ncc(Br)c(Nc3cccc(F)c3C(N)=O)n2)ccc1S(=O)(=O)NCCOCCOCCOCCOCCNc1cccc2c1C(=O)N(C1CCC(=O)NC1=O)C2=O` (stereo not drawn) [TMX.02.174], in test [9], the logFC is listed as −1.826 and the “logFC of PRKAA2 (P54646)” value was −1.826. In addition, in test [5] (PTK2 Q05397, experiment wp146), the logFC is given as −0.8198 and the “logFC PTK2” value is recorded as −0.8198.
As to `Nc1ncc(-c2ccc(S(=O)(=O)N(CCCNC(=O)CCOCCOCCOCCOCCOCCNc3cccc4c3C(=O)N(C3CCC(=O)NC3=O)C4=O)C3CC3)cc2)cc1-c1ccc2c(c1)CCNC2=O` (stereo not drawn) [WH.10417.099], the logFC in [8] (experiment wp056) is given as −0.4923; in [8] (experiment wp056, direction down), −0.4923; in test [8] (experiment wp103) it was −0.4751; in test [8] (setting [10]), −0.4751; in test [8] (experiment wp107) it was −0.5661; in test [8] (experiment wp107, direction down) it was −0.5661.
For the compound `C=CCn1c(=O)c2cnc(Nc3ccc(N4CCN(CCCNc5cccc6c5C(=O)N(C5CCC(=O)NC5=O)C6=O)CC4)cc3)nc2n1-c1cccc(C(C)(C)O)n1` (stereo not drawn) [ZNL.02.096], the logFC in test [1] (experiment wp056) is −0.3756.
